US20230085307A1, “PYRIDAZINONE COMPOUND AND HERBICIDE” (NISSAN CHEMICAL CORPORATION, priority 2019, published 2023)

What was measured:
[1] = test system: wild oat; experiment: Test Example 5: herbicidal effect by foliage application, plastic box (Table 20, symbol I); format: in vivo, wild oat (Avena fatua); conditions: foliage application, 320 g/ha, evaluated three weeks after application
In short: (§1)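 Sow seeds spot-wise in sterilized diluvial soil; cover with ~1.5 cm soil. Grow 14 days in greenhouse, 25° C. to 30° C. Spray foliage with emulsion diluted to predetermined amount. Rate effect after 3 weeks.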

[2] = test system: velvetleaf; experiment: Test Example 5: herbicidal effect by foliage application, plastic box (Table 20, symbol M); format: in vivo, velvetleaf (Abutilon theophrasti); conditions: foliage application, 320 g/ha, evaluated three weeks after application
In short: as §1

[3] = test system: green foxtail; experiment: Test Example 5: herbicidal effect by foliage application, plastic box (Table 20, symbol G); format: in vivo, green foxtail (Setaria viridis); conditions: foliage application, 320 g/ha, evaluated three weeks after application
In short: as §1

[4] = test system: Chinese sprangletop; experiment: Test Example 3: herbicidal effect by foliage application, Wagner pot (Table 18, symbol D); format: in vivo, chinese sprangletop (Leptochloa chinensis); conditions: amount of applied herbicide 320 g/ha
In short: (§2)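 Plants were sown in alluvial soil held under 0.1–0.5 cm standing water and grown 14 days in a greenhouse at 25–30 °C. An emulsifiable formulation, water-diluted to the set dose, was then sprayed onto the foliage, and effects were scored three weeks later using previously defined criteria.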

[5] = test system: southern crabgrass; experiment: Test Example 4: herbicidal effect by soil treatment (Table 19, symbol F); format: in vivo, southern crabgrass (Digitaria ciliaris); conditions: amount of applied herbicide 320 g/ha
In short: (§3)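 Soil-surface application: an emulsion agent diluted with water to the predetermined dose is sprayed uniformly over seeds lying under roughly 1.5 cm of sterilized diluvial soil. Boxes stay in a greenhouse at 25° C. to 30° C. Three weeks later, each species is graded on previously defined criteria.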

[6] = test system: barnyard grass; experiment: Test Example 5: herbicidal effect by foliage application, plastic box (Table 20, symbol H); format: in vivo, barnyard grass (Echinochloa crus-galli); conditions: foliage application, 320 g/ha, evaluated three weeks after application
In short: as §1

[7] = test system: persian speedwell; experiment: Test Example 4: herbicidal effect by soil treatment (Table 19, symbol R); format: in vivo, Persian speedwell (Veronica persica); conditions: amount of applied herbicide 320 g/ha
In short: as §3

[8] = test system: redroot pigweed; experiment: Test Example 5: herbicidal effect by foliage application, plastic box (Table 20, symbol N); format: in vivo, redroot pigweed (Amaranthus retroflexus); conditions: foliage application, 320 g/ha, evaluated three weeks after application
In short: as §1

[9] = test system: chickweed; experiment: Test Example 5: herbicidal effect by foliage application, plastic box (Table 20, symbol P); format: in vivo, common chickweed (Stellaria media); conditions: foliage application, 320 g/ha, evaluated three weeks after application
In short: as §1

[10] = test system: lambsquarters; experiment: Test Example 5: herbicidal effect by foliage application, plastic box (Table 20, symbol O); format: in vivo, lambsquarters (Chenopodium album); conditions: foliage application, 320 g/ha, evaluated three weeks after application
In short: as §1

[11] = test system: velvetleaf; experiment: Test Example 4: herbicidal effect by soil treatment (Table 19, symbol M); format: in vivo, velvetleaf (Abutilon theophrasti); conditions: amount of applied herbicide 320 g/ha
In short: as §3

[12] = test system: southern crabgrass; experiment: Test Example 5: herbicidal effect by foliage application, plastic box (Table 20, symbol F); format: in vivo, southern crabgrass (Digitaria ciliaris); conditions: foliage application, 320 g/ha, evaluated three weeks after application
In short: as §1

[13] = test system: windgrass; experiment: Test Example 5: herbicidal effect by foliage application, plastic box (Table 20, symbol L); format: in vivo, windgrass (Apera spica-venti); conditions: foliage application, 320 g/ha, evaluated three weeks after application
In short: as §1

[14] = test system: chickweed; experiment: Test Example 4: herbicidal effect by soil treatment (Table 19, symbol P); format: in vivo, common chickweed (Stellaria media); conditions: amount of applied herbicide 320 g/ha
In short: as §3

[15] = test system: barnyard grass; experiment: Test Example 4: herbicidal effect by soil treatment (Table 19, symbol H); format: in vivo, barnyard grass (Echinochloa crus-galli); conditions: amount of applied herbicide 320 g/ha
In short: as §3

[16] = test system: persian speedwell; experiment: Test Example 5: herbicidal effect by foliage application, plastic box (Table 20, symbol R); format: in vivo, Persian speedwell (Veronica persica); conditions: foliage application, 320 g/ha, evaluated three weeks after application
In short: as §1

[17] = test system: blackgrass; experiment: Test Example 5: herbicidal effect by foliage application, plastic box (Table 20, symbol J); format: in vivo, blackgrass (Alopecurus myosuroides); conditions: foliage application, 320 g/ha, evaluated three weeks after application
In short: as §1

[18] = test system: blackgrass; experiment: Test Example 4: herbicidal effect by soil treatment (Table 19, symbol J); format: in vivo, blackgrass (Alopecurus myosuroides); conditions: amount of applied herbicide 320 g/ha
In short: as §3

[19] = test system: Italian ryegrass; experiment: Test Example 4: herbicidal effect by soil treatment (Table 19, symbol K); format: in vivo, Italian ryegrass (Lolium multiflorum); conditions: amount of applied herbicide 320 g/ha
In short: as §3

[20] = test system: wild oat; experiment: Test Example 4: herbicidal effect by soil treatment (Table 19, symbol I); format: in vivo, wild oat (Avena fatua); conditions: amount of applied herbicide 320 g/ha
In short: as §3

[21] = test system: windgrass; experiment: Test Example 4: herbicidal effect by soil treatment (Table 19, symbol L); format: in vivo, windgrass (Apera spica-venti); conditions: amount of applied herbicide 320 g/ha
In short: as §3

[22] = test system: green foxtail; experiment: Test Example 4: herbicidal effect by soil treatment (Table 19, symbol G); format: in vivo, green foxtail (Setaria viridis); conditions: amount of applied herbicide 320 g/ha
In short: as §3

[23] = test system: Italian ryegrass; experiment: Test Example 5: herbicidal effect by foliage application, plastic box (Table 20, symbol K); format: in vivo, Italian ryegrass (Lolium multiflorum); conditions: foliage application, 320 g/ha, evaluated three weeks after application
In short: as §1

[24] = test system: lambsquarters; experiment: Test Example 4: herbicidal effect by soil treatment (Table 19, symbol O); format: in vivo, lambsquarters (Chenopodium album); conditions: amount of applied herbicide 320 g/ha
In short: as §3

[25] = test system: barnyard grass; experiment: Test Example 3: herbicidal effect by foliage application, Wagner pot (Table 18, symbol H); format: in vivo, barnyard grass (Echinochloa crus-galli); conditions: amount of applied herbicide 320 g/ha
In short: as §2

[26] = test system: rice flat sedge; experiment: Test Example 3: herbicidal effect by foliage application, Wagner pot (Table 18, symbol E); format: in vivo, rice flat sedge (Cyperus iria); conditions: amount of applied herbicide 320 g/ha
In short: as §2

[27] = test system: redroot pigweed; experiment: Test Example 4: herbicidal effect by soil treatment (Table 19, symbol N); format: in vivo, redroot pigweed (Amaranthus retroflexus); conditions: amount of applied herbicide 320 g/ha
In short: as §3

Row | SMILES | herbicidal effect on I: wild oat (criteria 0-5) [1] | herbicidal effect on M: velvetleaf (criteria 0-5) [2] | herbicidal effect on G: green foxtail (criteria 0-5) [3] | herbicidal effect on D: Chinese sprangletop [4] | herbicidal effect on H: barnyard grass (criteria 0-5) [6] | herbicidal effect on N: redroot pigweed (criteria 0-5) [8] | herbicidal effect on P: chickweed (criteria 0-5) [9] | herbicidal effect on O: lambsquarters (criteria 0-5) [10] | herbicidal effect on F: southern crabgrass (criteria 0-5) [12] | herbicidal effect on L: windgrass (criteria 0-5) [13] | herbicidal effect on R: persian speedwell (criteria 0-5) [16] | herbicidal effect on J: blackgrass (criteria 0-5) [17] | herbicidal effect on K: Italian ryegrass (criteria 0-5) [23] | herbicidal effect on H: barnyard grass [25] | herbicidal effect on E: rice flat sedge [26] | other results
1 | CCCCOc1cccc(-c2sc3ccc(F)cc3c2-c2c(OC(=O)CCC)c(C)nn(C)c2=O)c1 [2-220] | 0 (Herbicidal rate of 5% or less (almost no effect)) | 1 (Herbicidal rate of 5% or more and less than 20%) | 3 (Herbicidal rate of 40% or more and less than 70%) | 3 (Herbicidal rate of 40% or more and less than 70%) | 3 (Herbicidal rate of 40% or more and less than 70%) | 3 (Herbicidal rate of 40% or more and less than 70%) | 4 (Herbicidal rate of 70% or more and less than 90%) | 3 (Herbicidal rate of 40% or more and less than 70%) | 3 (Herbicidal rate of 40% or more and less than 70%) | 0 (Herbicidal rate of 5% or less (almost no effect)) | 4 (Herbicidal rate of 70% or more and less than 90%) | 0 (Herbicidal rate of 5% or less (almost no effect)) | 0 (Herbicidal rate of 5% or less (almost no effect)) | 5 (Herbicidal rate of 90% or more (almost completely withered)) | 3 (Herbicidal rate of 40% or more and less than 70%) | F: southern crabgrass, herbicidal effect rating [5]: 0 (Herbicidal rate of 5% or less (almost no effect)); R: persian speedwell, herbicidal effect rating [7]: 0 (Herbicidal rate of 5% or less (almost no effect)); M: velvetleaf, herbicidal effect rating [11]: 0 (Herbicidal rate of 5% or less (almost no effect)); P: chickweed, herbicidal effect rating [14]: 0 (Herbicidal rate of 5% or less (almost no effect)); H: barnyard grass, herbicidal effect rating [15]: 1 (Herbicidal rate of 5% or more and less than 20%); J: blackgrass, herbicidal effect rating [18]: 0 (Herbicidal rate of 5% or less (almost no effect)); K: Italian ryegrass, herbicidal effect rating [19]: 0 (Herbicidal rate of 5% or less (almost no effect)); I: wild oat, herbicidal effect rating [20]: 0 (Herbicidal rate of 5% or less (almost no effect)); L: windgrass, herbicidal effect rating [21]: 0 (Herbicidal rate of 5% or less (almost no effect)); G: green foxtail, herbicidal effect rating [22]: 0 (Herbicidal rate of 5% or less (almost no effect)); O: lambsquarters, herbicidal effect rating [24]: 0 (Herbicidal rate of 5% or less (almost no effect)); N: redroot pigweed, herbicidal effect rating [27]: 4 (Herbicidal rate of 70% or more and less than 90%)
2 | Cc1nn(C)c(=O)c(-c2c(-c3cccc(C(F)(F)F)c3)sc3ccc(F)cc23)c1O [2-231] | 0 (Herbicidal rate of 5% or less (almost no effect)) | 4 (Herbicidal rate of 70% or more and less than 90%) | 3 (Herbicidal rate of 40% or more and less than 70%) | 3 (Herbicidal rate of 40% or more and less than 70%) | 2 (Herbicidal rate of 20% or more and less than 40%) | 3 (Herbicidal rate of 40% or more and less than 70%) | 5 (Herbicidal rate of 90% or more (almost completely withered)) | 3 (Herbicidal rate of 40% or more and less than 70%) | 0 (Herbicidal rate of 5% or less (almost no effect)) | 4 (Herbicidal rate of 70% or more and less than 90%) | 4 (Herbicidal rate of 70% or more and less than 90%) | 0 (Herbicidal rate of 5% or less (almost no effect)) | 0 (Herbicidal rate of 5% or less (almost no effect)) | 4 (Herbicidal rate of 70% or more and less than 90%) | 5 (Herbicidal rate of 90% or more (almost completely withered)) | herbicidal effect on F: southern crabgrass [5]: 0 (Herbicidal rate of 5% or less (almost no effect)); herbicidal effect on R: persian speedwell [7]: 0 (Herbicidal rate of 5% or less (almost no effect)); herbicidal effect on M: velvetleaf [11]: 0 (Herbicidal rate of 5% or less (almost no effect)); herbicidal effect on P: chickweed [14]: 3 (Herbicidal rate of 40% or more and less than 70%); herbicidal effect on H: barnyard grass [15]: 0 (Herbicidal rate of 5% or less (almost no effect)); herbicidal effect on J: blackgrass [18]: 0 (Herbicidal rate of 5% or less (almost no effect)); herbicidal effect on K: Italian ryegrass [19]: 0 (Herbicidal rate of 5% or less (almost no effect)); herbicidal effect on I: wild oat [20]: 0 (Herbicidal rate of 5% or less (almost no effect)); herbicidal effect on L: windgrass [21]: 0 (Herbicidal rate of 5% or less (almost no effect)); herbicidal effect on G: green foxtail [22]: 0 (Herbicidal rate of 5% or less (almost no effect)); herbicidal effect on O: lambsquarters [24]: 1 (Herbicidal rate of 5% or more and less than 20%); herbicidal effect on N: redroot pigweed [27]: 0 (Herbicidal rate of 5% or less (almost no effect))
